Values after ≈ are worked out from the molar mass of the structure shown.
Experiments:
Bibionidae = settings: chronic/long-term; duration: 28 days
Oryctolagus sp. = settings: developmental; development
Ictalurus punctatus = settings: acute; duration: 96 hours; mortality
Oncorhynchus mykiss = settings: chronic/long-term; duration: 21 days; growth
Colinus virginianus = settings: acute; oral; mortality
Canidae = settings: acute; oral; Dog Other; mortality
Apis mellifera = settings: acute; dermal; mortality
Daphnia magna = settings: chronic/long-term; duration: 21 days; reproduction

`COC(=O)Nc1nc2ccccc2[nH]1` [Carbendazim] gave an NOEC (Bibionidae) of 0.0133 mg/L, an LC50 (Tagia sp.; acute, duration: 14 days, mortality) of 5.4 mg/kg and an NOEC (Tagia sp.; chronic/long-term, duration: 56 days) of 1 mg/kg. For the same compound, the NOAEL (Oryctolagus sp.) was 10 mg/kg-day, the LC50 (Ictalurus punctatus) was 0.019 mg/L (≈ 0.0994 µM) and the NOEC (Oncorhynchus mykiss) was 0.0032 mg/L. The LD50 (Colinus virginianus) was > 2250 mg/kg-day, the LD50 (Canidae) was > 5000 mg/kg-day and the NOEL (Anas platyrhynchos; reproductive) was 24.6 mg/kg-day. For the same compound, the LD50 (Anas platyrhynchos; short-term, oral, feed, mortality) was 615 mg/kg-day, the LD50 (Apis mellifera) was > 50 µg/piece and the NOEL (Rattus norvegicus; chronic, organ weight) was 22.5 mg/kg-day. It also gave an NOAEL (Rattus norvegicus; developmental, development) of 10 mg/kg-day and an NOEC (Daphnia magna) of 0.0015 mg/L.

Source: EPA's ToxValDB 9.5 (doi:10.2903/j.efsa.2010.1598)
